Laboratory results taken from publication PMC7529893, “Structural basis for substrate recognition and chemical inhibition of oncogenic MAGE ubiquitin ligases” (Nature Communications, 2020).

What follows are molecules tested against T1, MAGE-A11:PCF11 interaction (GST-MAGE-A11 MHD and FAM-PCF11_4) (Homo sapiens, UniProt P43364) (assay: TR-FRET dose response test of compounds for disruption of MAGE-A11:PCF11 binding). Settings: Dose response TR-FRET screening of nine scaffold groups against MAGE-A11:PCF11; read-out: consensus IC50.
T1 construct: GST-MAGE-A11 MHD (human MAGE-A11 MHD amino acid 218-429); made in house; host or cells: E. coli BL21(DE3)
T1 sequence (P43364 218-429): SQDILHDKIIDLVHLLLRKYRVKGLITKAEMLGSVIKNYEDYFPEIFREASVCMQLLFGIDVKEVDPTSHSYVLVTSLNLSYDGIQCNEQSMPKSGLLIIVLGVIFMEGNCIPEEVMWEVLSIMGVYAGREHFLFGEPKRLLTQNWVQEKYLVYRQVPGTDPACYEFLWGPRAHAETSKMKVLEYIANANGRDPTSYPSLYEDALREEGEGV
Method: The TR-FRET assay buffer with a formula of 50 mM Tris pH 7.5, 20 mM MgCl2, 0.1 mg/ml BSA and 1 mM DTT was freshly prepared before each experiment. All TR-FRET assays were performed in black 384-well plates with 20 µl/well assay volume in the TR-FRET assay buffer at room temperature (~25 °C). All peptides or compounds were solubilized in DMSO. To test the competitive activity of peptides or compounds against the interaction between GST-MAGE-A11 MHD and FAM-PCF11_4 peptide, 10 µl/well peptide or compound at specified concentration was dispensed into a black 384-well low volume plate, followed by 5 µl/well FAM-PCF11_4 (800 nM), 5 µl/well Tb-anti-GST (20 nM), and GST-MAGE-A11 MHD (20 nM). The assay components in each well was then mixed by shaking the plate on an IKA MTS 2/4 digital microtiter plate shaker (IKA Works; Wilmington, NC, USA) for 1 min. The plate was further centrifuged in an Eppendorf 5810 centrifuge with an A-4-62 swing-bucket rotor (Eppendorf AG, Hamburg, Germany) at 201 g for 30 s. The plate was then incubated for 90 min with a lid to avoid light exposure to the assay components. After incubation, the fluorescent emission signals at 520 nm and 490 nm channels of individual wells were measured with a PHERAstar FS plate reader (BMG Labtech; Durham, NC, USA) by using a 340 nm excitation filter, 100 µs delay time, and 200 µs integration time. The TR-FRET fluorescence emission ratio (TR-FRET signal) for each well was presented as 10,000 × 520 nm/490 nm, which was used directly for curve fitting, or further converted to %Inhibition based on the respective positive and negative controls. The graphic software GraphPad Prism 4.81 (GraphPad Software; La Jolla, CA, USA) was used to generate curves and derive IC50 values of tested peptides or compounds, if applicable.
TR-FRET screen for identifying MAGE-A11 small molecule inhibitors was performed as follows. The primary one-concentration screening and subsequent 10 or 20-concentration dose-response tests were accomplished with an automated High Throughput Screening system (HighRes Biosolutions, Beverly, MA)[30]. In the primary screening, 15 µl/well FAM-PCF11_4 (267 nM) was first dispensed with a Multidrop Combi Reagent Dispenser (Thermo Fisher Scientific, Waltham, MA) to black 384-well low-volume assay plates. The plates were spun down with a Velocity11 VSpin microplate centrifuge (Agilent Technologies, Santa Clara, CA). In total, 30 nl/well of 10 mM compound/DMSO solutions, or DMSO alone, were transferred from compound plates (the St. Jude FDA drug and bioactive library, Drug-like library and Lead-like library) or a control plate to the assay plates with a Pin Tool (V&P Scientific, San Diego, CA). The compounds were arrayed in columns 3–12 and columns 15–24 of compound plates. The controls were arrayed in columns 1, 2, 13, and 14 of a compound plate. In all, 5 µl/well Tb-anti-GST (20 nM) and GST-MAGE-A11 (20 nM) or 5 µl/well Tb-anti-GST (20 nM) alone was then dispensed to selected wells with a Multidrop Combi Reagent Dispenser. The final assay volume was 20 µl/well. The final DMSO concentration was 0.25% (v/v) (0.1% (v/v) from the FAM-PCF11_4 DMSO stock solution and 0.15% (v/v) from the compound-DMSO solution or the DMSO for the control wells). The final tested compound concentration was 15 µM. The final FAM-PCF11_4 concentration was 200 nM and the final Tb-anti-GST concentration was 5 nM. The final GST-MAGE-A11 concentration was 5 nM except for those selected positive control wells in which GST-MAGE-A11 was not presented. The plates were then shaken with a big bear shaker (Big Bear Automation, Santa Clara, California) and spun down with the Velocity11 VSpin microplate centrifuge for 20 s. The plates were then incubated at room temperature in a Liconic incubator (Liconic US, Woburn, MA) for 90 min. The TR-FRET signals for individual wells were measured with a PHERAstar FS plate reader. The %Inhibition of each tested inhibitor was calculated by using Eq. 1.

Compound	IC50 [µM]
COc1cccc(CNCCCNc2ccnc3cc(Oc4ccc(C(C)(C)C)cc4)ccc23)c1O [SJ000311235-1]	7.65
CC(C)(C)c1ccc(Oc2ccc3c(NCCCNCc4cccc5c4OCO5)ccnc3c2)cc1 [SJ000311236-1]	8.67
COc1ccc(F)cc1CNCCCNc1ccnc2cc(Oc3ccc(C(C)(C)C)cc3)ccc12 [SJ000311237-1]	6.29
COc1cccc(CNCCCNc2ccnc3cc(-c4ccc(F)cc4)ccc23)c1O [SJ000311239-1]	33.3
Fc1ccc(-c2ccc3c(NCCCNCc4cccc5c4OCO5)ccnc3c2)cc1 [SJ000311240-1]	25
COc1ccc(F)cc1CNCCCNc1ccnc2cc(-c3ccc(F)cc3)ccc12 [SJ000311241-1]	38.9
COc1cccc(CNCCCNc2ccnc3cc(Cc4ccc(F)cc4)ccc23)c1O [SJ000311243-1]	43.6
Fc1ccc(Cc2ccc3c(NCCCNCc4cccc5c4OCO5)ccnc3c2)cc1 [SJ000311244-1]	42.3
COc1ccc(F)cc1CNCCCNc1ccnc2cc(Cc3ccc(F)cc3)ccc12 [SJ000311245-1]	35.1
CC(C)CCc1ccc2c(NCCCNCc3cccc4c3OCO4)ccnc2c1 [SJ000311248-1]	27.7
COc1cccc(CNCCCNc2ccnc3cc(CC4CCCCC4)ccc23)c1O [SJ000311251-1]	29.2
c1cc(CNCCCNc2ccnc3cc(CC4CCCCC4)ccc23)c2c(c1)OCO2 [SJ000311252-1]	16
COc1ccc(F)cc1CNCCCNc1ccnc2cc(CC3CCCCC3)ccc12 [SJ000311253-1]	26.3
COc1cccc(CNCCCNc2ccnc3cc(CCc4ccccc4)ccc23)c1O [SJ000311255-1]	26.5
COc1ccc(F)cc1CNCCCNc1ccnc2cc(CCc3ccccc3)ccc12 [SJ000311256-1]	37.1
c1ccc(CCc2ccc3c(NCCCNCc4cccc5c4OCO5)ccnc3c2)cc1 [SJ000311257-1]	62.3
COc1cccc(CNCCCNc2ccnc3cc(CC(C)C)ccc23)c1O [SJ000311259-1]	68.5
COc1cccc(CNCCCNc2ccnc3cc(C4CCCCC4)ccc23)c1O [SJ000311263-1]	32.4
c1cc(CNCCCNc2ccnc3cc(C4CCCCC4)ccc23)c2c(c1)OCO2 [SJ000311264-1]	23.7
COc1ccc(F)cc1CNCCCNc1ccnc2cc(C3CCCCC3)ccc12 [SJ000311265-1]	24.2
CCC(CC)c1ccc2c(NCCCNCc3cccc(OC)c3O)ccnc2c1 [SJ000311267-1]	9.95
CCC(CC)c1ccc2c(NCCCNCc3cccc4c3OCO4)ccnc2c1 [SJ000311268-1]	28.9

Compound	IC50 [µM]
CCC(CC)c1ccc2c(NCCCNCc3cc(F)ccc3OC)ccnc2c1 [SJ000311269-1]	43
FC(F)(F)c1cc(-c2ccc3c(NCCCNCc4cccc5c4OCO5)ccnc3c2)cc(C(F)(F)F)c1 [SJ000311272-1]	9.02
COc1ccc(F)cc1CNCCCNc1ccnc2cc(-c3cc(C(F)(F)F)cc(C(F)(F)F)c3)ccc12 [SJ000311273-1]	7.69
COc1cccc(CNCCCNc2ccnc3cc(-c4cccc5ccccc45)ccc23)c1O [SJ000311275-1]	16
c1cc(CNCCCNc2ccnc3cc(-c4cccc5ccccc45)ccc23)c2c(c1)OCO2 [SJ000311276-1]	31.2
COc1ccc(F)cc1CNCCCNc1ccnc2cc(-c3cccc4ccccc34)ccc12 [SJ000311277-1]	10.3
COc1cccc(CNCCCNc2ccnc3cc(-c4ccc(C(F)(F)F)cc4)ccc23)c1O [SJ000311279-1]	9.52
FC(F)(F)c1ccc(-c2ccc3c(NCCCNCc4cccc5c4OCO5)ccnc3c2)cc1 [SJ000311280-1]	15.7
COc1ccc(F)cc1CNCCCNc1ccnc2cc(-c3ccc(C(F)(F)F)cc3)ccc12 [SJ000311281-1]	13.4
COc1cccc(CNCCCNc2ccnc3cc(-c4ccccc4)ccc23)c1O [SJ000311283-1]	24.1
c1ccc(-c2ccc3c(NCCCNCc4cccc5c4OCO5)ccnc3c2)cc1 [SJ000311284-1]	22.2
COc1ccc(F)cc1CNCCCNc1ccnc2cc(-c3ccccc3)ccc12 [SJ000311285-1]	28.2
COc1cccc(CNCCCNc2ccnc3cc(-c4ccc(C(C)(C)C)cc4)ccc23)c1O [SJ000311287-1]	4.67
CC(C)(C)c1ccc(-c2ccc3c(NCCCNCc4cccc5c4OCO5)ccnc3c2)cc1 [SJ000311288-1]	6.87
COc1ccc(F)cc1CNCCCNc1ccnc2cc(-c3ccc(C(C)(C)C)cc3)ccc12 [SJ000311289-1]	4.62
COc1cccc(CNCCCNc2ccnc3cc(-c4ccc5c(c4)OCO5)ccc23)c1O [SJ000311291-1]	24.6
c1cc(CNCCCNc2ccnc3cc(-c4ccc5c(c4)OCO5)ccc23)c2c(c1)OCO2 [SJ000311292-1]	30.5
COc1ccc(F)cc1CNCCCNc1ccnc2cc(-c3ccc4c(c3)OCO4)ccc12 [SJ000311293-1]	29.9
COc1cccc(CNCCCNc2ccnc3cc(Cc4cccc(C(F)(F)F)c4)ccc23)c1O [SJ000311299-1]	27.5
FC(F)(F)c1cccc(Cc2ccc3c(NCCCNCc4cccc5c4OCO5)ccnc3c2)c1 [SJ000311300-1]	12.8
COc1ccc(F)cc1CNCCCNc1ccnc2cc(Cc3cccc(C(F)(F)F)c3)ccc12 [SJ000311301-2]	22.1

Same assay, conditions: Supplementary Data 3, 59 quinoline compounds; read-out: TR-FRET IC50

Compound	IC50 [µM]
CC(C)(C)c1ccc(Oc2ccc3c(NCCCNCc4ccco4)ccnc3c2)cc1 [SJ000311234-1, CC(C)(C)c1ccc(Oc2ccc3c(NCCCNCc4occc4)ccnc3c2)cc1]	32.1
c1coc(CNCCCNc2ccnc3cc(CC4CCCCC4)ccc23)c1 [SJ000311250-1, C(CNCc1occc1)CNc2ccnc3cc(CC4CCCCC4)ccc23]	54.9
c1coc(CNCCCNc2ccnc3cc(C4CCCCC4)ccc23)c1 [SJ000311262-1, C(CNCc1occc1)CNc2ccnc3cc(ccc23)C4CCCCC4]	> 70
c1coc(CNCCCNc2ccnc3cc(-c4cccc5ccccc45)ccc23)c1 [SJ000311274-1, C(CNCc1occc1)CNc2ccnc3cc(ccc23)c4cccc5ccccc45]	> 70
FC(F)(F)c1ccc(-c2ccc3c(NCCCNCc4ccco4)ccnc3c2)cc1 [SJ000311278-1, FC(F)(F)c1ccc(cc1)c2ccc3c(NCCCNCc4occc4)ccnc3c2]	22.7
c1coc(CNCCCNc2ccnc3cc(-c4ccc5c(c4)OCO5)ccc23)c1 [SJ000311290-1, C(CNCc1occc1)CNc2ccnc3cc(ccc23)c4ccc5OCOc5c4]	> 70

Same assay, conditions: Supplementary Data 4; read-out: TR-FRET, IC50

Compound	IC50 [µM]
FC(F)(F)c1ccc(-c2ccc3c(NCCCNCc4cccc5c4OCO5)ccnc3c2)cc1 [SJ000311280-01]	4.07
COc1ccc(F)cc1CNCCCNc1ccnc2cc(-c3ccc(C(F)(F)F)cc3)ccc12 [SJ000311281-01]	5.58
c1ccc(-c2ccc3c(NCCCNCc4cccc5c4OCO5)ccnc3c2)cc1 [SJ000311284-01]	20.6
